Test system: C5-1 antibody
Assay: C5-1 antibody quantification by ELISA in agroinfiltrated leaves
Type: in vivo, Nicotiana benthamiana
Details: ELISA; 1 mM, leaves treated 24 h before infiltration
Description: Forty-two day-old N. benthamiana plants grown in greenhouse were used for the experiments. Each plant was sprayed evenly with 50 ml of 0.5 mM, 1 mM or 2 mM MeJA in water containing 0.1% (v/v) Triton X-100 (Sigma-Aldrich, Mississauga ON, Canada), or with 50 ml of 1 mM arachidonic acid (Girard et al., 2007) in the same solvent, and transferred for seven days in a Conviron growth chamber (Conviron, Winnipeg MB, Canada). Plants sprayed with 50 ml of 0.1% (v/v) Triton X-100 in water were used in parallel as negative controls to avoid confounding effects due to experimental conditions. Two or three 1-cm^2 leaf discs were harvested from the third main stem leaf (see Robert et al., 2013) after seven days, as source material for protein and RNA extraction. The leaf samples were frozen immediately in liquid nitrogen and stored at −80° C. until protein or RNA extraction. Three to five biological (plant) replicates were used for each treatment, to allow for statistical treatment of the data. Two gene vectors were used for the agroinfiltration assays: an engineered pcambia2300 vector encoding the light and heavy chains of C5-1 fused to an N-terminal signal peptide sequence for cellular secretion (see Goulet et al., 2012 for details on gene construct); and the original (“empty”) pcambia2300 binary vector (CAMBIA, Canberra, Australia) as a control for agroinfection. The two binary vectors were electroporated into A. tumefaciens strain LBA4404 and the cultures were maintained in Luria-Bertani (LB) medium supplemented with 50 μg/ml kanamycin and 50 μg/ml rifampicin. For infiltration, bacteria were grown to stable phase at 28° C. to an OD600 of 1.0 and collected by centrifugation at 2,000 g. The bacterial pellets were resuspended in 10 mM 2-[N-morpholino] ethanesulfonic acid] (MES) buffer, pH 5.8, containing 100 μM acetosyringone and 10 mM MgCl2. Leaf infiltration was performed using a needle-less syringe as described earlier (D'Aoust et al., 2009), after mixing the C5-1 antibody (or empty vector) agrobacterial suspension with an equal volume of bacterial suspension carrying a binary vector for the protein silencing suppressor p19 (Voinnet et al., 2003). Infiltrated tissue for molecular characterization was collected six days post-infection (i.e. seven days post-MeJA or arachidonate treatment), unless otherwise indicated. Three to five biological (plant) replicates were used for each treatment to allow for statistical analyses. ELISA plates for C5-1 antibody quantification (Becton Dickinson, Mississauga ON, Canada) were coated with 3.75 μg/ml goat anti-mouse heavy chain-specific IgG1 (Sigma-Aldrich) in 50 mM carbonate buffer (pH 9.0) at 4° C. for 16-18 h. The plates were washed three times in 10 mM phosphate-buffered saline containing 0.1% (v/v) Tween 20 (PBS-T), blocked through a 1-h incubation at 37° C. in 1% (w/v) casein in phosphate-buffered saline (PBS) (Pierce, Rockford Ill., USA), and washed three times in PBS-T. A standard curve was generated for each plate with 0, 4, 8, 16, 24, 32, 40 and 60 ng/ml of purified mouse IgG1 (Sigma-Aldrich). All dilutions (controls and samples) were performed in a control extract obtained from leaf tissue infiltrated with a mock inoculum so that any matrix effect was eliminated. The plates were incubated with protein samples for 1 h at 37° C., washed three times in PBS-T and then incubated with peroxidase-conjugated goat anti-mouse IgG (H+L) antibodies (0.02 μg/ml in blocking solution) (Jackson ImmunoResearch) for 1 h at 37° C. After additional washes with PBS-T, the plates were incubated with the 3,3′,5,5′-tetramethylbenzidine Sure Blue peroxidase substrate (KPL, Gaithersburg Md., USA). The reaction was stopped by the addition of 1 N HCl and the absorbance was read at 450 nm. Three independent (biological) replicates were used for each assay.

CCCCC/C=C\C/C=C\C/C=C\C/C=C\CCCC(=O)O [arachidonic acid]
C5-1 yield change: No yield increase

From patent US10907168B2, “Jasmonic acid pathway activator” (MEDICAGO INC., priority 2015, dated 2021)
